Data taken from US20250197864A1, “LNCRNA TRANSCRIPTS IN MELANOMAGENESIS” (The Regents of the University of California, priority 2021, published 2025).

Tested on: gene expression in D04 melanoma cells
Experiment: RNA-Seq differential expression analysis (DESeq2)
Format: cell-based, human
Conditions: up-regulated list
Method: Total RNA was isolated using the RNeasy mini Kit (QIAGEN) following the manufacturer's protocol. Quality check for extracted RNA was done using 2100 Bioanalyzer (Agilent Technologies, USA) or Tapestation System (Agilent Technologies, USA). […] For samples used for identification of MAPK-responsive lncRNAs, paired-end, 101-bp sequencing was performed by Centrillion Genomic Services (Centrillion Biosciences, USA) on an Illumina HiSeq 2000. For DE gene analysis of ASO-transfected D04 samples, paired-end, 2×150-bp sequencing was performed by Genewiz (USA) on a Illumina HiSeq.
Sequence reads were aligned to the human genome (hg19) using TopHat (Version 2.0.11).
Differential expression (DE) analysis was done using DESeq2. Differentially expressed genes were defined by more than 1.5-fold changes (log 2 >0.58 or <−0.58) in expression with FDR<0.05. GO term analysis was done using DAVID Functional Annotation Clustering analysis.
To examine the biomolecular changes upon TRASH-inhibition in melanoma, D04 cells were treated with TRASH-ASOs (SEQ ID NO:15) and Control-ASOs and RNA was extracted and used for RNA-Seq. […] These GO terms consisted of genes encoding growth factors, tyrosine kinases, G protein coupled receptor subunits, and collagen subunits. Scatter plot diagram showing differential gene expression after TRASH-ASO treatment compared to Control-ASO treatment. (cut-off for significance was adjusted p-value <0.05). Data was obtained from RNA-Seq of D04 melanoma cells, treatment period was three days. (FIG. 5c)

Sequence: GACTGGAGATAATTAA (gapmer, pattern not given here) [SEQ ID NO: 15, GapmeR ASO targeting AC004540.4 (TRASH), exon region of both isoforms; used for in vitro experiments]
- log2FoldChange CSRNP1 (ENSG00000144655): 0.6637
- log2FoldChange MYH15 (ENSG00000144821): 1.163
- log2FoldChange PHLDB2 (ENSG00000144824): 0.8277
- log2FoldChange EAF2 (ENSG00000145088): 0.8471
- log2FoldChange ECE2 (ENSG00000145194): 0.8019
- log2FoldChange DDIT4L (ENSG00000145358): 0.9547
- log2FoldChange GFOD1 (ENSG00000145990): 0.6187
- log2FoldChange TRIM7 (ENSG00000146054): 0.7787
- log2FoldChange PM20D2 (ENSG00000146281): 0.6289
- log2FoldChange EGFR (ENSG00000146648): 0.8305
- log2FoldChange GCNA (ENSG00000147174): 0.8797
- log2FoldChange MAL2 (ENSG00000147676): 0.6498
- log2FoldChange RGS10 (ENSG00000148908): 0.5971
- log2FoldChange ST14 (ENSG00000149418): 1.17
- log2FoldChange PDCD4 (ENSG00000150593): 0.586
- log2FoldChange IL18 (ENSG00000150782): 0.6212
- log2FoldChange NOCT (ENSG00000151014): 0.6791
- log2FoldChange JMY (ENSG00000152409): 0.9323
- log2FoldChange NR4A2 (ENSG00000153234): 0.7664
- log2FoldChange CCDC148 (ENSG00000153237): 0.745
- log2FoldChange FAM167A (ENSG00000154319): 0.6771
- log2FoldChange LY96 (ENSG00000154589): 0.6345
- log2FoldChange HKDC1 (ENSG00000156510): 0.717
- log2FoldChange CD109 (ENSG00000156535): 0.6418
- log2FoldChange NRG1 (ENSG00000157168): 0.8358
- log2FoldChange WDR66 (ENSG00000158023): 1.174
- log2FoldChange TPRG1L (ENSG00000158109): 0.6032
- log2FoldChange XDH (ENSG00000158125): 0.6451
- log2FoldChange GDPD5 (ENSG00000158555): 0.6005
- log2FoldChange LAD1 (ENSG00000159166): 1.038
- log2FoldChange STC1 (ENSG00000159167): 0.8653
- log2FoldChange KLHL21 (ENSG00000162413): 0.8059
- log2FoldChange FBLIM1 (ENSG00000162458): 0.7967
- log2FoldChange ATF3 (ENSG00000162772): 0.6827
- log2FoldChange COQ8A (ENSG00000163050): 0.9489
- log2FoldChange CRYGC (ENSG00000163254): 1.014
- log2FoldChange PAQR3 (ENSG00000163291): 0.7134
- log2FoldChange KBTBD8 (ENSG00000163376): 1.017
- log2FoldChange IGFN1 (ENSG00000163395): 1.134
- log2FoldChange NKX6-1 (ENSG00000163623): 1.147
- log2FoldChange PLB1 (ENSG00000163803): 0.8869
- log2FoldChange LZTFL1 (ENSG00000163818): 0.6384
- log2FoldChange RAET1E (ENSG00000164520): 1.147
- log2FoldChange DAGLB (ENSG00000164535): 0.608
- log2FoldChange GPR85 (ENSG00000164604): 0.7923
- log2FoldChange SUN3 (ENSG00000164744): 0.9518
- log2FoldChange EN2 (ENSG00000164778): 1.028
- log2FoldChange FRAT1 (ENSG00000165879): 0.9146
- log2FoldChange GPR176 (ENSG00000166073): 0.7841
- log2FoldChange SVOP (ENSG00000166111): 1.178
- log2FoldChange C16orf71 (ENSG00000166246): 0.7026
- log2FoldChange C16orf46 (ENSG00000166455): 0.9764
- log2FoldChange GREM1 (ENSG00000166923): 1.047
- log2FoldChange CD3D (ENSG00000167286): 0.767
- log2FoldChange AXL (ENSG00000167601): 0.7701
- log2FoldChange DNAAF3 (ENSG00000167646): 0.6547
- log2FoldChange SERPINF2 (ENSG00000167711): 1.036
- log2FoldChange KRT80 (ENSG00000167767): 0.6697
- log2FoldChange ABCA3 (ENSG00000167972): 0.8489
- log2FoldChange CAVIN2 (ENSG00000168497): 1.053
- log2FoldChange IL12A (ENSG00000168811): 0.635
- log2FoldChange C8orf46 (ENSG00000169085): 0.7557
- log2FoldChange HSPB3 (ENSG00000169271): 0.6385
- log2FoldChange ZNF280A (ENSG00000169548): 0.9372
- log2FoldChange MT1E (ENSG00000169715): 0.8998
- log2FoldChange MZB1 (ENSG00000170476): 1.158
- log2FoldChange S1PR1 (ENSG00000170989): 0.6805
- log2FoldChange XAGE3 (ENSG00000171402): 0.6996
- log2FoldChange ZNF57 (ENSG00000171970): 0.6499
- log2FoldChange NIPAL4 (ENSG00000172548): 1.166
- log2FoldChange MUC13 (ENSG00000173702): 1.042
- log2FoldChange GOLT1A (ENSG00000174567): 0.9754
- log2FoldChange C11orf68 (ENSG00000175573): 0.673
- log2FoldChange TSPEAR (ENSG00000175894): 0.9662
- log2FoldChange ENTHD1 (ENSG00000176177): 0.5983
- log2FoldChange ZNF843 (ENSG00000176723): 0.9407
- log2FoldChange RIMKLA (ENSG00000177181): 0.711
- log2FoldChange JUN (ENSG00000177606): 0.715
- log2FoldChange ZNF619 (ENSG00000177873): 0.5884
- log2FoldChange ZNF114 (ENSG00000178150): 0.8507
- log2FoldChange KCTD12 (ENSG00000178695): 0.7298
- log2FoldChange FJX1 (ENSG00000179431): 0.6535
- log2FoldChange PLD6 (ENSG00000179598): 0.696
- log2FoldChange WDR97 (ENSG00000179698): 0.7195
- log2FoldChange B3GNT3 (ENSG00000179913): 0.7904
- log2FoldChange ANKRD18A (ENSG00000180071): 0.7649
- log2FoldChange OXTR (ENSG00000180914): 1.093
